According to US20090163406A1, “COMPOSITIONS AND METHODS FOR DIAGNOSING AND TREATING BRAIN CANCER AND IDENTIFYING NEURAL STEM CELLS” (THE REGENTS OF THE UNIVERSITY OF CALIFORNIA, priority 2004, published 2009):
Entries after “also recorded” stand apart in the source; their conditions may differ.

Tests used:
[1] = system: primary cerebellar granule cells precursors (CGPs); test: Cell cycle analysis and cell counts in cultured cerebellar granule cell precursors; format: cell-based, mouse; conditions: for fraction of cells in S-phase: CGP with mitogen, 50 uM, 24 hours, flow cytometric DNA content
Protocol: FIG. 9F: described below. […] Yellow circle indicates normally cycling cells.
Culture of Cerebellar Granule Cell Precursors: Cerebella were harvested from P6-P8 CD1 mouse pups and digested in Papain with DNase, and dissociated in PBS BSA with fire polished pipettes followed by a cell strainer. Granule cell precursors were then separated on a 35%/65% percoll step gradient at 1500 g for 12 minutes as previously described (Wechsler-Reya, supra (1999)). Cells were either transfected at this point or plated at 250K cells/well onto Poly-L-Lysine coated glass coverslips in 24 well plates in 330 uls of Neurobasal Media containing 2% B27 supplement, 1 mM sodium pyruvate, 2 mM glutamine, and 1% penicillin/streptomycin, supplemented with 2.5 ug/ml mouse recombinant Sonic Hedge Hog (R&D systems 461-5H-025) as noted in the text, above.
Cell counts: For immunocytochemistry, all cells in 10 random 40× fields were counted. For the stem cell ablation experiments we used stereo investigator to count all PBK/TOPK cells in the SEZ ventral to the anterior horn at the level of the anterior commissure bilaterally in 3 replicate animals. T-tests were performed in Microsoft Excel.

[2] = system: neural progenitors cultured from E12 mouse telencephalic germinal zones; test: Cell number and cell cycle of attached E12 telencephalic neural progenitors in bFGF
Daoy cells = test: Daoy medulloblastoma cell growth (total cell number); format: cell-based, human; conditions: cyclopamine alone or combined with MELK siRNA
Protocol: Transient Transfection. […] For transfection of plasmid vectors, the cells were incubated with reagents for 6 hours with the primary progenitor cells, and for 24 hours with N2a cells. […] Incubation with siRNA complex was 6 hours with primary cells and 24 hours with cell lines.
We then examined whether the effect of MELK siRNA is for cell survival or cell proliferation.
Propium iodide-labeled tumor populations were measured for cell death assay after treatment of siRNA for two days (e).

[3] = system: dividing GFAP positive cells; test: Ganciclovir ablation in GFAP promoter HSV-TK transgenic mice, SEZ immunohistochemistry; format: in vivo, mouse; conditions: 21 days ganciclovir, vs non-transgenic controls
Excerpt: PBK/TOPK positive cells are mitotically active progenitors in vivo: The expression pattern in vitro as a mitotically active kinase, coupled with in vivo data, provided evidence that PBK/TOPK was expressed in several mitotically active progenitor cell populations in the central nervous system, but not in quiescent, slower cycling putative stem cells. To more conclusively establish PBK/TOPK expression in stem and progenitor cells in vivo, we examined PBK/TOPK in transgenic mice expressing the herpes simplex virus thymidine kinase gene (HSV-TK) under control of the GFAP promoter (see, e.g., Bush, T. G., et al., Neuron (1999) 23:297-308; Garcia, supra (2004)). Since HSV-TK phosphorylates the drug ganciclovir and phosphorylated ganciclovir kills cells at mitosis, when these mice are given ganciclovir, all dividing GFAP positive cells are killed. […] Three transgenic mice were treated for 21 days with ganciclovir followed by BrdU injections for two days, and then processed for immunohistochemistry. […] This finding provided direct in vivo evidence that PBK/TOPK positive cells arise from proliferating GFAP positive cells, consistent with PBK/TOPK being expressed exclusively by proliferating progenitor cells in the adult brain. […]
Cell counts: For immunocytochemistry, all cells in 10 random 40× fields were counted. […]

[4] = CGP, twenty-four hours of P38 inhibition

C[S+]([O-])c1ccc(-c2nc(-c3ccncc3)c(-c3ccc(F)cc3)[nH]2)cc1 (centres unmarked) [SB203580]
fraction of cells in S-phase [1]: reduces fraction of S-Phase cells; also recorded: dramatic decrease in the fraction of cells in S-phase | fraction of cells in S-phase ([1]; listed as sb203580): significant decrease in the number of cells re-entering S-phase | cell number in the absence of mitogen ([1]; CGP without mitogen treatment): no impact on cell number | number of NeuN positive cells [1, 4]: without significantly impacting; also recorded: without any impact | number of PBK/TOPK positive cells [1, 4]: reduces PBK/TOPK positive cells; also recorded: reduction in the number of the PBK/TOPK positive cells | total number of cells ([1]; proliferating neuronal progenitors): decrease in the total number of cells | cycling cells assessed by flow cytometry ([2]; in the presence of bFGF): decrease in cycling cells | DNA aneuploidy ([2]; long exposures or high doses, 48 hours at highest dose): resulted in DNA aneuploidy; also recorded: accumulation of DNA-aneuploid cells | cell number ([2]; varying doses, in the presence of bFGF): dose dependant decrease in proliferation; also recorded: dose dependant decrease in cell number

CC1=C2C[C@H]3[C@@H](CC=C4C[C@@H](O)CC[C@@]43C)[C@@H]2CC[C@]12O[C@@H]1C[C@H](C)CN[C@H]1[C@H]2C [cyclopamine]
Daoy cell growth / proliferation with shh-Gli1 pathway inhibitor (Daoy cells): inhibition of cell growth

Nc1nc(O)c2ncn(COC(CO)CO)c2n1 [ganciclovir]
Dcx positive cells in SEZ [3]: complete ablation
